Patent publication US7806924B2 (Cordis Corporation, priority 2004, dated 2010)

Key:
[1] = system: human smooth muscle cells; experiment: Cladribine Example: PDGF-stimulated proliferation, cell count on day six, smooth muscle cells; assay type: cell-based; conditions: from the IC50 values
Experimental: To assess the ability of cladribine to prevent cell proliferation, human smooth muscle or endothelial cells (Clonetics, Walkersville, Md.) were seeded at a density of 2000 cells/cm^2 (approximately 3600 cells/well) into each well of 12-well plates and cultured with 1.5 ml of growth medium containing five percent fetal calf serum (FCS). After twenty-four hours, the growth medium was changed and fresh medium containing 10 ng/ml platelet-derived growth factor AB (PDGF AB; LIFE Technologies), as well as various concentrations of cladribine (0.001-10,000 nM) were added with triplicate wells. Medium was replaced with fresh cladribine-containing medium after three days. On day six, cells were detached by trypsinization to yield a cell suspension, lightly centrifuged to pellet and then counted manually using a Neubauer hemocytometer system. Cell viability was assessed by trypan blue exclusion.

[2] = system: human coronary artery smooth muscle cells; experiment: Anti-proliferative activity in non-synchronized cultured human coronary artery smooth muscle cells stimulated with two percent fetal bovine serum; assay type: cell-based; conditions: for effect on the anti-proliferative activity of rapamycin (shift of the rapamycin dose response curve): added to cells treated with rapamycin
From the text: The multiple curves represent various concentrations of mycophenolic acid ranging from zero to one thousand nanomolar concentrations.
FIG. 58 illustrates, in graphical format, the anti-proliferative activity of cladribine in non-synchronized cultured human coronary artery smooth muscle cells stimulated with two percent fetal bovine serum.
The multiple curves represent various concentrations of cladribine ranging from zero to nine hundred nanomolar concentrations.

[3] = In vivo release kinetics of rapamycin and cladribine, porcine pharmacokinetics studies; set-up: species or system Yorkshire pigs; conditions: Bx Velocity stents, FIG. 63 compared to FIG. 62
From the text: (§1) The basecoat is applied to Bx Velocity® stents and implanted into Yorkshire pigs.
as §1

[4] = In vivo release kinetics of rapamycin and mycophenolic acid, porcine pharmacokinetics studies
From the text: The topcoat is two hundred micro grams.

tumor cell lines = conditions: cited from earlier work
[5] = system: human coronary artery smooth muscle cell proliferation; experiment: In vitro cell culture study of coronary artery smooth muscle cell proliferation; assay type: cell-based
From the text: FIG. 51 is a graph of the inhibition of coronary artery smooth muscle cells by trichostatin A in a cell culture study.

Nc1nc(Cl)nc2c1ncn2[C@H]1C[C@H](O)[C@@H](CO)O1 [cladribine, 2-chlorodeoxyadenosine]
potency as inhibitor of smooth muscle cells relative to endothelial cells [1]: approximately twice
inhibition of human coronary artery smooth muscle cell proliferation ([2]; FIG. 58): completely inhibits
effect on the anti-proliferative activity of rapamycin (shift of the rapamycin dose response curve) [2]: potentiate
in vivo elution from EVA/BMA basecoat with BMA topcoat [3]: elutes more rapidly than rapamycin

CO[C@H]1C[C@@H]2CC[C@@H](C)[C@@](O)(O2)C(=O)C(=O)N2CCCC[C@H]2C(=O)O[C@H]([C@H](C)C[C@@H]2CC[C@@H](O)[C@H](OC)C2)CC(=O)[C@H](C)/C=C(\C)[C@@H](O)[C@@H](OC)C(=O)[C@H](C)C[C@H](C)/C=C/C=C/C=C/1C [Rapamycin, rapamycin]
in vivo release rate from PVDF basecoat with PVDF topcoat ([4]; six hundred micro grams basecoat, two hundred micro grams topcoat): slower release rate than that of mycophenolic acid

COc1c(C)c2c(c(O)c1C/C=C(\C)CCC(=O)O)C(=O)OC2 [mycophenolic acid]
in vivo release from EVA/BMA basecoat (with or without BMA topcoat) ([4]; 180 micro grams rapamycin, 180 micro grams mycophenolic acid, 240 micro grams EVA/BMA): elutes more completely over a shorter duration than the rapamycin
effect on the anti-proliferative activity of rapamycin (shift of the rapamycin dose response curve) [2]: potentiates

CC(/C=C/C(=O)NO)=C\[C@@H](C)C(=O)c1ccc(N(C)C)cc1 [trichostatin A]
anti-proliferative IC50's (tumor cell lines): low nM range
inhibition of human coronary artery smooth muscle cell proliferation [5]: completely inhibit
IC50 ([5]; read-out: anti-proliferative IC50): ~6 nM
